Measured values as given in article PMC5030359, “Cathelicidin Antimicrobial Peptides with Reduced Activation of Toll-Like Receptor Signaling Have Potent Bactericidal Activity against Colistin-Resistant Bacteria” (mBio, 2016).
Converted amounts (≈) assume the structure as drawn. Where two headings read alike, the source gives them in different places. Ends that are not written are not given here. Peptide text beside a SMILES is read from it.

What was measured:
TLR3 = TLR3 signaling: IL-6 ELISA in BEAS-2B cells treated with poly(I·C); format: cell-based, human; conditions: for % IL-6 produced compared to controls (SD) TLR3: poly(I·C) […], peptide 2 µM, ELISA, control cells = 100%, mean (SD) of minimum three assays
Description: (§1) Eight cathelicidins produced by eight mammals were selected for an initial examination (Fig. 1A). […] However, the number of charged residues and the lengths of the disordered residues differed (Fig. 1B). The peptides were added to BEAS-2B cells, a human lung epithelial cell line that expresses multiple TLRs and can release proinflammatory cytokines in response to their activation and the enhancement of cytokine release by LL-37 ([15]). BEAS-2B cells treated with the TLR3 agonist poly(I⋅C) and 2 µM LL-37 increased interleukin 6 (IL-6) production by threefold. All of the nonhuman cathelicidins tested had lower TLR3 signaling compared to LL-37 (Fig. 1B). The lack of TLR3 signaling by the nonhuman cathelicidins was due to the inability to use the formyl peptide receptor-like receptor 1 to endocytose the double-stranded RNA (dsRNA)−LL-37 complex and deliver the poly(I⋅C) to TLR3 in endosomes ([17]) (see Fig. S1 in the supplemental material). All of the nonhuman cathelicidins also had reduced activation of TLR9 compared to LL-37 (Fig. 1B).
(§2) FIG 1 Cathelicidins from animals have distinct abilities to act on Toll-like receptor signaling. (A) A phylogenetic relationship of cathelicidins from mammals. The figure is derived from results of Zanetti et al. (12). (B) Names, lengths, and sequences of cathelicidin peptides and their ability to affect Toll-like receptor signaling. The peptide lengths are shown in the numbers of amino acids (AAs). The residues predicted to form an α-helix are underlined with an arrow. The basic, acidic, and aromatic residues are colored blue, red, and green, respectively. TLR signaling was assessed by the amount of IL-6 cytokine produced in BEAS-2B cells. IL-6 levels were quantified using enzyme-linked immunosorbent assay (ELISA), and the level of IL-6 in the control cells is normalized to 100%. The peptides were added to the cells at a final concentration of 2 μM. Each result is the mean of a minimum of three independent assays, and the standard deviations (SD) are shown in parentheses.
(§3) The concentration of IL-6 secreted into the cell medium was quantified using the OptEIA kit (BD Biosciences, San Jose, CA). A typical assay used 1 × 10^4 BEAS-2B cells/well grown for 24 h in flat-bottom 96-well plates. Poly(I⋅C) was added to a final concentration of 0.13 µg/ml for 24 h. ODN2006 was added to 0.5 nM. Lipopolysaccharides were used at 0.5 µg/ml. All data shown are the means and ranges of 1 standard error for a minimum of three independent samples. Data sets were compared using the Student t test calculated with GraphPad Prism 5 software.

TLR4 = TLR4 signaling: IL-6 ELISA in BEAS-2B cells treated with LPS; format: cell-based, human; conditions: for % IL-6 produced compared to controls (SD) TLR4: BEAS-2B cells, LPS 0.5 µg/ml, peptide 2 µM, ELISA, control cells = 100%, mean (SD) of minimum three assays
Text: as §2
LL-37 at 2 µM final concentration reduced IL-6 production to approximately half that of the untreated cells (Fig. 1B).
as §3

TLR9 = TLR9 signaling: IL-6 ELISA in BEAS-2B cells treated with CpG DNA ODN2006; format: cell-based, human; conditions: ODN2006 0.5 nM, peptide 2 µM, control cells = 100%, mean (SD) of minimum three assays
Description: as §1, §2, §3

[1] = broth microdilution, CAMHB, at least three independent assays
[2] = strains with MIC of 16 µg/ml or less / strains tested

Description for 19 Gram-negative strains: (A) Sequences of the cathelicidins, the numbers of bacterial strains killed, and hRBC lysis by the cathelicidins. […] The bacterial species tested are Klebsiella pneumoniae (K. p.), Serratia marcescens (S. m.), Enterobacter cloacae (E. cl.), Escherichia coli (E. c.), and Pseudomonas aeruginosa (P. a.). MICs were determined by the microdilution assay. […] The results are the median values of at least three independent assays.
We tested a panel of cathelicidins for inhibiting growth of 19 Gram-negative strains from the family Enterobacteriaceae and the nonfermentative bacteria. The species tested were Enterobacter cloacae ([2]), Escherichia coli ([5]), Klebsiella pneumoniae ([4]), Pseudomonas aeruginosa ([4]), and Serratia marcescens ([4]). All of the strains selected have been characterized for their antibiotic resistance profiles.
(§4) Antimicrobial activity was determined using the broth microdilution method based on the guidelines of the Clinical and Laboratory Standards Institute (CLSI) ([39]), using cation-adjusted Mueller-Hinton broth (CAMHB) as the testing medium. Reference Gram-positive and Gram-negative bacteria were tested, including both enteric and Pseudomonas aeruginosa strains. Each MIC was determined in at least three independent assays.
Description for Enterobacter cloacae: (§5) The bacterial species tested are Klebsiella pneumoniae (K. p.), Serratia marcescens (S. m.), Enterobacter cloacae (E. cl.), Escherichia coli (E. c.), and Pseudomonas aeruginosa (P. a.). MICs were determined by the microdilution assay. […] The results are the median values of at least three independent assays.
as §4
Description for Escherichia coli: as §5, §4
Description for Klebsiella pneumoniae: as §5, §4
Description for Pseudomonas aeruginosa: as §5, §4
Description for Serratia marcescens: as §5, §4

With `CC[C@H](C)[C@H](NC(=O)[C@H](CCCCN)NC(=O)[C@H](CCC(=O)O)NC(=O)[C@H](CCCCN)NC(=O)[C@H](CO)NC(=O)[C@H](CCCCN)NC(=O)[C@H](CCCNC(=N)N)NC(=O)[C@H](Cc1ccccc1)NC(=O)[C@H](Cc1ccccc1)NC(=O)[C@H](CC(=O)O)NC(=O)CNC(=O)[C@H](CC(C)C)NC(=O)[C@@H](N)CC(C)C)C(=O)NCC(=O)N[C@@H](CCCCN)C(=O)N[C@@H](CCC(=O)O)C(=O)N[C@@H](Cc1ccccc1)C(=O)N[C@@H](CCCCN)C(=O)N[C@@H](CCCNC(=N)N)C(=O)N[C@H](C(=O)N[C@H](C(=O)N[C@@H](CCC(N)=O)C(=O)N[C@@H](CCCNC(=N)N)C(=O)N[C@H](C(=O)N[C@@H](CCCCN)C(=O)N[C@@H](CC(=O)O)C(=O)N[C@@H](Cc1ccccc1)C(=O)N[C@@H](CC(C)C)C(=O)N[C@@H](CCCNC(=N)N)C(=O)N[C@@H](CC(N)=O)C(=O)N[C@@H](CC(C)C)C(=O)N[C@H](C(=O)N1CCC[C@H]1C(=O)N[C@@H](CCCNC(=N)N)C(=O)N[C@H](C(=O)N[C@@H](CCC(=O)O)C(=O)N[C@@H](CO)C(=O)O)[C@@H](C)O)C(C)C)[C@@H](C)CC)C(C)C)[C@@H](C)CC` [LL-37] the “No. of strains inhibited at 16 µg/ml/total no. of strains” value (“No. of strains inhibited” below) (19 Gram-negative strains) was 0/19, the “MIC for any/all of the 19 bacterial strains” value (19 Gram-negative strains; statement over all 19 Gram-negative strains) was “at least 32 µg/ml” and the “% IL-6 produced compared to controls (SD) TLR3” value (from here on “% IL-6 produced … (SD) TLR3”) (TLR3) was 389(16) %. The “increase of IL-6 production” value (TLR3; poly(I·C), 2 µM peptide) was “threefold”, the “% IL-6 produced compared to controls (SD) TLR4” value (from here on “% IL-6 produced … (SD) TLR4”) (TLR4) was 55(3) % and the “IL-6 production relative to untreated cells” value (TLR4; LPS-induced TLR4 signaling, 2 µM peptide) was “approximately half”. The “# strains inhibited at 16 µg/ml peptide K. p.” value (Klebsiella pneumoniae) was 0/4, the “MIC K. pneumoniae 4110” value (Klebsiella pneumoniae; [1]) was over 32 µg/mL and the “MIC K. pneumoniae ATCC 700603” value (Klebsiella pneumoniae; [1]) was over 32 µg/mL. The “MIC K. pneumoniae C2” value (Klebsiella pneumoniae; [1]) was over 32 µg/mL, the “MIC K. pneumoniae OC8893” value (Klebsiella pneumoniae; [1]) was over 32 µg/mL and the “% IL-6 produced compared to controls (SD) TLR9” value (from here on “% IL-6 produced … (SD) TLR9”) (TLR9) was 175(15) %. The “# strains inhibited at 16 µg/ml peptide E. c.” value (Escherichia coli) was 0/6, the “MIC E. coli ATCC 25922” value (Escherichia coli; [1]) was 32 µg/mL (≈ 7.12 µM) and the “MIC E. coli ATCC 35218” value (Escherichia coli; [1]) was 32 µg/mL (≈ 7.12 µM). The “MIC E. coli IU0342” value (Escherichia coli; [1]) was 32 µg/mL (≈ 7.12 µM), the “MIC E. coli J53 AzideR” value (Escherichia coli; [1]) was over 32 µg/mL and the “MIC E. coli MC4100” value (Escherichia coli; [1]) was over 32 µg/mL. For the same compound, the “# strains inhibited at 16 µg/ml peptide P. a.” value (Pseudomonas aeruginosa) was 0/4, the “MIC P. aeruginosa 4083” value (Pseudomonas aeruginosa; [1]) was 32 µg/mL (≈ 7.12 µM) and the “MIC P. aeruginosa ATCC 27853” value (Pseudomonas aeruginosa; [1]) was over 32 µg/mL. The “MIC P. aeruginosa PAO1” value (Pseudomonas aeruginosa; [1]) was 32 µg/mL (≈ 7.12 µM), the “MIC P. aeruginosa PAO1 ΔOprD” value (Pseudomonas aeruginosa; [1]) was 32 µg/mL (≈ 7.12 µM) and the “# strains inhibited at 16 µg/ml peptide E. cl.” value (Enterobacter cloacae) was 0/2. For the same compound, the “MIC E. cloacae 4080” value (Enterobacter cloacae; [1]) was 32 µg/mL (≈ 7.12 µM), the “MIC E. cloacae 4092” value (Enterobacter cloacae; [1]) was over 32 µg/mL and the “# strains inhibited at 16 µg/ml peptide S. m.” value (Serratia marcescens) was 0/3. For the same compound, the “MIC S. marcescens 4075” value (Serratia marcescens; [1]) was over 32 µg/mL, the “MIC S. marcescens 4101” value (Serratia marcescens; [1]) was over 32 µg/mL and the “MIC S. marcescens 4104” value (Serratia marcescens; [1]) was over 32 µg/mL. For the same compound, the “MIC S. marcescens 7553” value (Serratia marcescens; [1]) was over 32 µg/mL.
In the case of CAP-18, the “No. of strains inhibited” value (19 Gram-negative strains) is reported as 11/19, the “% IL-6 produced … (SD) TLR3” value (TLR3) is reported as 234(30) % and the “% IL-6 produced … (SD) TLR4” value (TLR4) is reported as 42(13) %. For the same compound, the “# strains inhibited at 16 µg/ml peptide K. p.” value (Klebsiella pneumoniae; [2]) was 4/4, the “% IL-6 produced … (SD) TLR9” value (TLR9) was 121(23) % and the “# strains inhibited at 16 µg/ml peptide E. c.” value (Escherichia coli) was 3/6. The “# strains inhibited at 16 µg/ml peptide P. a.” value (Pseudomonas aeruginosa) was 3/4, the “# strains inhibited at 16 µg/ml peptide E. cl.” value (Enterobacter cloacae; [2]) was 1/2 and the “# strains inhibited at 16 µg/ml peptide S. m.” value (Serratia marcescens; [2]) was 0/3.
With “GLRKKFRKTRKRIQKLGRKIGKTGRKVWKAWREYGQIPYPCRI [CAP-11]” the “No. of strains inhibited” value (19 Gram-negative strains; 19 Gram-negative strains, MIC of 16 µg/ml or less) was 16, the “% IL-6 produced … (SD) TLR3” value (TLR3) was 148(8) % and the “% IL-6 produced … (SD) TLR4” value (TLR4) was 9(4) %. The “# strains inhibited at 16 µg/ml peptide K. p.” value (Klebsiella pneumoniae; [2]) was 4/4, the “% IL-6 produced … (SD) TLR9” value (TLR9) was 79(10) % and the “# strains inhibited at 16 µg/ml peptide E. c.” value (Escherichia coli) was 5/6. For the same compound, the “# strains inhibited at 16 µg/ml peptide P. a.” value (Pseudomonas aeruginosa) was 4/4, the “# strains inhibited at 16 µg/ml peptide E. cl.” value (Enterobacter cloacae; [2]) was 2/2 and the “# strains inhibited at 16 µg/ml peptide S. m.” value (Serratia marcescens; [2]) was 1/3.
With CRAMP the “No. of strains inhibited” value (19 Gram-negative strains) was 2/19, the “% IL-6 produced … (SD) TLR3” value (TLR3) was 57(10) % and the “% IL-6 produced … (SD) TLR4” value (TLR4) was 41(7) %. For the same compound, the “# strains inhibited at 16 µg/ml peptide K. p.” value (Klebsiella pneumoniae; [2]) was 0/4, the “% IL-6 produced … (SD) TLR9” value (TLR9) was 41(7) % and the “# strains inhibited at 16 µg/ml peptide E. c.” value (Escherichia coli) was 1/6. For the same compound, the “# strains inhibited at 16 µg/ml peptide P. a.” value (Pseudomonas aeruginosa) was 0/4, the “# strains inhibited at 16 µg/ml peptide E. cl.” value (Enterobacter cloacae; [2]) was 1/2 and the “# strains inhibited at 16 µg/ml peptide S. m.” value (Serratia marcescens; [2]) was 0/3.
For `CC[C@H](C)[C@H](NC(=O)[C@H](CCCCN)NC(=O)[C@H](CCC(=O)O)NC(=O)[C@H](CCCCN)NC(=O)[C@@H](NC(=O)[C@H](CCCCN)NC(=O)[C@H](CCCNC(=N)N)NC(=O)[C@H](Cc1ccccc1)NC(=O)[C@H](Cc1ccccc1)NC(=O)[C@H](CC(N)=O)NC(=O)CNC(=O)[C@H](CC(C)C)NC(=O)[C@@H](N)CCCNC(=N)N)C(C)C)C(=O)NCC(=O)NCC(=O)NCC(=O)N[C@@H](CC(C)C)C(=O)N[C@@H](CCCCN)C(=O)N[C@@H](CCCCN)C(=O)N[C@H](C(=O)NCC(=O)N[C@@H](CCC(N)=O)C(=O)N[C@@H](CCCCN)C(=O)N[C@H](C(=O)N[C@@H](CCCCN)C(=O)N[C@@H](CC(=O)O)C(=O)N[C@@H](Cc1ccccc1)C(=O)N[C@@H](CC(C)C)C(=O)NCC(=O)N[C@@H](CC(N)=O)C(=O)N[C@@H](CC(C)C)C(=O)N[C@H](C(=O)N1CCC[C@H]1C(=O)N[C@@H](CCCNC(=N)N)C(=O)N[C@H](C(=O)N[C@@H](C)C(=O)N[C@@H](CO)C(=O)O)[C@@H](C)O)C(C)C)[C@@H](C)CC)C(C)C` [RL-37] (H-RLGNFFRKVKEKIGGGLKKVGQKIKDFLGNLVPRTAS-OH; N-terminus and C-terminus assumed), the “No. of strains inhibited” value (19 Gram-negative strains) was 7/19, the “% IL-6 produced … (SD) TLR3” value (TLR3) was 102(18) % and the “% IL-6 produced … (SD) TLR4” value (TLR4) was 50(5) %. The “# strains inhibited at 16 µg/ml peptide K. p.” value (Klebsiella pneumoniae; [2]) was 3/4, the “% IL-6 produced … (SD) TLR9” value (TLR9) was 93(19) % and the “# strains inhibited at 16 µg/ml peptide E. c.” value (Escherichia coli) was 2/6. For the same compound, the “# strains inhibited at 16 µg/ml peptide P. a.” value (Pseudomonas aeruginosa) was 1/4, the “# strains inhibited at 16 µg/ml peptide E. cl.” value (Enterobacter cloacae; [2]) was 1/2 and the “# strains inhibited at 16 µg/ml peptide S. m.” value (Serratia marcescens; [2]) was 0/3.
